Assay results taken from PubChem BioAssay AID236 (DTP/NCI, 2004).
Values joined by “and” are separate entries in the source; they are usually repeats but may differ in a detail not shown here. Identical values can stand only once. Toxic doses and inconclusive results are not listed.

System: AK4 lymphoid leukemia ip, C3AKF1 mice, survival
Assay: NCI In Vivo Anticancer Drug Screen. Data for tumor model AK4 Lymphoid Leukemia (intraperitoneal) in C3AKF1 (CHKRF1) mice
Conditions: endpoint: median survival time, vehicle: saline, higher = longer survival
Description: The antitumor activity of compounds was measured in mice bearing transplantable tumors. Survival or tumor size were measured and the results are expressed as the measurement made in the treated group (T) divided by the measurement made in the vehicle treated control group (C). The tumor model used in this assay is AK4 Lymphoid Leukemia (intraperitoneal) in C3AKF1 (CHKRF1) mice

[1] = dose: 6.0 mg/kg/injection, schedule: Q01DX010 (ip)
[2] = dose: 12.0 mg/kg/injection, schedule: Q01DX010 (ip)
[3] = dose: 50.0 mg/kg/injection, schedule: Q01DX010 (ip)
[4] = dose: 100.0 mg/kg/injection, schedule: Q01DX010 (ip)
[5] = dose: 200.0 mg/kg/injection, schedule: Q01DX010 (ip)
[6] = dose: 400.0 mg/kg/injection, schedule: Q01DX010 (ip)
[7] = dose: 12.5 mg/kg/injection, schedule: Q01DX010 (ip)
[8] = dose: 25.0 mg/kg/injection, schedule: Q01DX010 (ip)
[9] = dose: 1.0 mg/kg/injection, schedule: Q01DX010 (ip)
[10] = dose: 2.0 mg/kg/injection, schedule: Q01DX010 (ip)
[11] = dose: 4.0 mg/kg/injection, schedule: Q01DX010 (ip)
[12] = dose: 8.0 mg/kg/injection, schedule: Q01DX010 (ip)
[13] = dose: 6.25 mg/kg/injection, schedule: Q01DX010 (ip)
[14] = dose: 1.25 mg/kg/injection, schedule: Q01DX010 (ip)
[15] = dose: 2.5 mg/kg/injection, schedule: Q01DX010 (ip)

CN(C)c1ccc(/C=C\c2ccnc3ccccc23)cc1
T/C (dose: 1.5 mg/kg/injection, schedule: Q01DX010 (ip)): 100 % of control | T/C (dose: 3.0 mg/kg/injection, schedule: Q01DX010 (ip)): 100 % of control | T/C [1]: 100 % of control | T/C [2]: 100 % of control

OC(CBr)C(O)C(O)C(O)CBr (stereo not given)
T/C [3]: 100 % of control and 87 % of control | T/C [4]: 93 % of control and 87 % of control | T/C [5]: 93 % of control and 100 % of control | T/C [6]: 100 % of control

COc1cc(-c2ccc(Nc3ccccc3C(=O)O)c(OC)c2)ccc1Nc1ccccc1C(=O)O
T/C [7]: 112 % of control | T/C [8]: 112 % of control and 122 % of control | T/C [4]: 162 % of control

CCN(CC)c1ccc2cc3ccc(=[N+](CC)CC)cc-3oc2c1
T/C [9]: 100 % of control | T/C [10]: 100 % of control | T/C [11]: 100 % of control | T/C [12]: 100 % of control

O=c1cn[nH]c(=O)[nH]1
T/C (dose: 32.0 mg/kg/injection, schedule: Q01DX006 (iv)): 88 % of control | T/C (dose: 32.0 mg/kg/injection, schedule: Q01DX010 (ip)): 88 % of control | T/C (dose: 32.0 mg/kg/injection, schedule: Q01DX010 (sc)): 88 % of control | T/C (dose: 32.0 mg/kg/injection, schedule: Q02DX005 (im)): 94 % of control | T/C (dose: 64.0 mg/kg/injection, schedule: Q01DX006 (iv)): 100 % of control | T/C (dose: 64.0 mg/kg/injection, schedule: Q01DX010 (ip)): 88 % of control | T/C (dose: 64.0 mg/kg/injection, schedule: Q01DX010 (sc)): 88 % of control | T/C (dose: 64.0 mg/kg/injection, schedule: Q02DX005 (im)): 105 % of control | T/C (dose: 100.0 mg/kg/injection, schedule: Q03DX Z (ip)): 88 % of control | T/C (dose: 125.0 mg/kg/injection, schedule: Q01DX001 (ip)): 88 % of control and 94 % of control | T/C (dose: 125.0 mg/kg/injection, schedule: Q01DX010 (oral)): 100 % of control | T/C (dose: 125.0 mg/kg/injection, schedule: Q07DX Z (ip)): 111 % of control | T/C (dose: 128.0 mg/kg/injection, schedule: Q01DX006 (iv)): 88 % of control | T/C (dose: 128.0 mg/kg/injection, schedule: Q01DX010 (ip)): 88 % of control | T/C (dose: 128.0 mg/kg/injection, schedule: Q01DX010 (sc)): 88 % of control | T/C (dose: 128.0 mg/kg/injection, schedule: Q02DX005 (im)): 122 % of control | T/C (dose: 200.0 mg/kg/injection, schedule: Q03DX Z (ip)): 100 % of control | T/C (dose: 250.0 mg/kg/injection, schedule: Q01DX001 (ip)): 94 % of control and 100 % of control | T/C (dose: 250.0 mg/kg/injection, schedule: Q01DX010 (oral)): 94 % of control | T/C (dose: 250.0 mg/kg/injection, schedule: Q07DX Z (ip)): 88 % of control | T/C (dose: 256.0 mg/kg/injection, schedule: Q01DX006 (iv)): 105 % of control | T/C (dose: 256.0 mg/kg/injection, schedule: Q01DX010 (ip)): 100 % of control | T/C (dose: 256.0 mg/kg/injection, schedule: Q01DX010 (sc)): 105 % of control | T/C (dose: 256.0 mg/kg/injection, schedule: Q02DX005 (im)): 88 % of control | T/C (dose: 400.0 mg/kg/injection, schedule: Q03DX Z (ip)): 94 % of control | T/C (dose: 500.0 mg/kg/injection, schedule: Q01DX001 (ip)): 94 % of control and 105 % of control | T/C (dose: 500.0 mg/kg/injection, schedule: Q01DX010 (oral)): 111 % of control | T/C (dose: 500.0 mg/kg/injection, schedule: Q07DX Z (ip)): 88 % of control | T/C (dose: 800.0 mg/kg/injection, schedule: Q03DX Z (ip)): 94 % of control | T/C (dose: 1000.0 mg/kg/injection, schedule: Q01DX001 (ip)): 100 % of control and 105 % of control | T/C (dose: 1000.0 mg/kg/injection, schedule: Q01DX010 (oral)): 94 % of control | T/C (dose: 1000.0 mg/kg/injection, schedule: Q07DX Z (ip)): 100 % of control

C[C@H]1C(=O)O[C@@H]2CCN3CC=C(COC(=O)[C@](C)(O)[C@@]1(C)O)[C@H]23
T/C (dose: 3.13 mg/kg/injection, schedule: Q01DX010 (ip)): 111 % of control | T/C [13]: 100 % of control | T/C [7]: 117 % of control

O=C1C(NC(=O)C2CCCCC2)=C(N2CC2)C(=O)C(NC(=O)C2CCCCC2)=C1N1CC1
T/C [8]: 90 % of control | T/C [3]: 95 % of control and 100 % of control | T/C [4]: 95 % of control and 100 % of control | T/C [5]: 100 % of control and 110 % of control | T/C [6]: 116 % of control

CS(=O)(=O)OCCCCOS(C)(=O)=O
T/C [13]: 87 % of control and 100 % of control | T/C [7]: 100 % of control and 87 % of control | T/C [8]: 100 % of control | T/C [3]: 87 % of control and 100 % of control

O=C(O)c1[nH]c(=O)[nH]c(=O)c1F
T/C [14]: 105 % of control | T/C [15]: 122 % of control | T/C (dose: 10.0 mg/kg/injection, schedule: Q01DX010 (ip)): 155 % of control and 205 % of control | T/C (dose: 20.0 mg/kg/injection, schedule: Q01DX010 (ip)): 111 % of control

C=CC(CN1CC1)OC(C)=O (stereo not given)
T/C [10]: 90 % of control and 100 % of control | T/C [11]: 95 % of control and 111 % of control | T/C [12]: 88 % of control and 120 % of control | T/C (dose: 16.0 mg/kg/injection, schedule: Q01DX010 (ip)): 90 % of control

NC(=O)c1ccc(NC(=O)CCC(=O)Nc2ccc(C(N)=O)cn2)nc1
T/C (dose: 0.63 mg/kg/injection, schedule: Q01DX010 (ip)): 100 % of control | T/C [14]: 110 % of control | T/C [15]: 110 % of control | T/C (dose: 5.0 mg/kg/injection, schedule: Q01DX010 (ip)): 100 % of control

NC(=O)N(CCCl)N=O
T/C (dose: 0.5 mg/kg/injection, schedule: Q01DX010 (ip)): 162 % of control | T/C [9]: 168 % of control and 200 % of control | T/C [11]: 87 % of control

N#CCSc1ncnc2nc[nH]c12
T/C (dose: 15.0 mg/kg/injection, schedule: Q01DX010 (ip)): 87 % of control | T/C (dose: 30.0 mg/kg/injection, schedule: Q01DX010 (ip)): 93 % of control | T/C (dose: 60.0 mg/kg/injection, schedule: Q01DX010 (ip)): 93 % of control | T/C (dose: 120.0 mg/kg/injection, schedule: Q01DX010 (ip)): 87 % of control

O=c1c(O)cccc2cc(O)c(O)c(O)c12
T/C [8]: 94 % of control

O=C(Nc1ccc(C2=NCCN2)cc1)c1ccc(C(=O)Nc2ccc(C3=NCCN3)cc2)c([N+](=O)[O-])c1
T/C [1]: 150 % of control | T/C [2]: 155 % of control and 210 % of control | T/C (dose: 18.0 mg/kg/injection, schedule: Q01DX010 (ip)): 100 % of control and 240 % of control

CCOC(N)=O
T/C (dose: 125.0 mg/kg/injection, schedule: Q01DX010 (ip)): 100 % of control and 121 % of control | T/C (dose: 250.0 mg/kg/injection, schedule: Q01DX010 (ip)): 100 % of control and 106 % of control | T/C (dose: 1000.0 mg/kg/injection, schedule: Q01DX010 (ip)): 87 % of control
